15 compounds from patent US10104891B2 (priority 2014, dated 2018) can be followed below.

Molecules are shown by their SMILES.

Common to all, as to type: in vivo
The subject of assay [1] is Pseudoperonospora cubensis. As to the kind of experiment: Test 2: control effect against cucumber downy mildew. As to conditions: Pseudoperonospora cubensis, 120 h, control value vs untreated section. In outline: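 Protective test: zoospores (1.0×10^4 units/ml) misted one day after applying a 4 ppm suspension (wettable powder diluted in 1/5000 Tween20) to 2-leaf cucumber, Sagami hanjiro. After 16 hr at 22° C humid incubation, leaf lesion area read at day 5, expressed as control value versus untreated leaves.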

The subject of assay [2] is Phytophthora infestans. Put plainly: whole plant or invertebrate. As to conditions: Phytophthora infestans, in Solanum lycopersicum, 96 h, read-out: control value (Test 1).
In assay [3] the test system is Plasmopara viticola. As to the kind of experiment: Test 3: control effect against grape downy mildew. As to conditions: Plasmopara viticola, 120 h, control value vs untreated section. In outline:
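Leaf lesion area, scored 5 days after inoculation and compared with untreated plants, gives the control value. Inoculation used P. viticola zoospores (1.0×10^4 units/ml) with a 16 hr moist incubation at 22° C. It followed by one day a spray of 4 ppm compound (wettable powder in Tween20) onto Neomuscat seedlings.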

In assay [4] the test system is Pythium graminicola. As to the kind of experiment: Test 4: control effect against rice damping-off by the Pythium fungus (soil lavage). As to conditions: 1,000 ppm, 2.5 ml test suspension drenched on contaminated soil, rice (koshihikari). The essentials:
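Compound at 1,000 ppm in 1/5000 Tween20 was drenched (2.5 ml) onto Koshihikari rice seeds, 3 pre-sprouted seeds per cell, sown in soil infested with Pythium graminicola (5 g/kg). Regime: 28 °C for 72 h, 5 °C for 2 days, then 25 °C for 14 days. Dead and stunted seedlings were scored into an onset rate, and control value = (1 − treated/untreated) × 100.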

With `CS(=O)(=O)Oc1ccc(F)c2c1COC(c1csc(C3CCN(C(=S)Cn4nc(C(F)F)cc4C(F)F)CC3)n1)OC2` (stereo not drawn) [Compound 1-158, 4-[4-(6-fluoro-9-methylsulfonyloxy-1,5-dihydro-3H-2,4-benzodioxepin-3-yl)-2-thiazolyl]-1-[2-[3,5-bis(difluoromethyl)-1H-pyrazole-1-yl]thioacetyl]piperidine], the pest or weed control at 4 µg/mL in assay [1], in assay [2] and in assay [3] was 100% each time. In addition, the pest or weed control at 1000 ppm in assay [4] was ≥ 90%.
With `Cc1ccc(C)c(CC(=O)N2CCC(c3nc(C4OCc5cccc(OS(C)(=O)=O)c5CO4)cs3)CC2)c1` (stereo not drawn) [Compound 2-1, 4-[4-(6-methylsulfonyloxy-1,5-dihydro-3H-2,4-benzodioxepin-3-yl)-2-thiazolyl]-1-[2-(2,5-dimethylphenyl)acetyl]piperidine], the pest or weed control at 4 µg/mL in assay [1], in assay [2] and in assay [3] was 100% each time. Besides, the pest or weed control at 1000 ppm in assay [4] was ≥ 90%.
For `CS(=O)(=O)Oc1cccc2c1COC(c1csc(C3CCN(C(=O)Cc4cc(Cl)ccc4Cl)CC3)n1)OC2` (stereo not drawn) [Compound 2-2, 4-[4-(6-methylsulfonyloxy-1,5-dihydro-3H-2,4-benzodioxepin-3-yl)-2-thiazolyl]-1-[2-(2,5-dichlorophenyl)acetyl]piperidine], the pest or weed control at 4 µg/mL in assay [1], in assay [2] and in assay [3] was 100% in each case. Further, the pest or weed control at 1000 ppm in assay [4] was ≥ 90%.
For the compound `O=C(Cc1cc(Cl)ccc1Cl)N1CCC(c2nc(C3OCc4c(F)ccc(F)c4CO3)cs2)CC1` [Compound 2-4, 4-[4-(6,9-difluoro-1,5-dihydro-3H-2,4-benzodioxepin-3-yl)-2-thiazolyl]-1-[2-(2,5-dichlorophenyl)acetyl]piperidine], the pest or weed control at 4 µg/mL in assay [1], in assay [2] and in assay [3] was 100% in each case. Besides, the pest or weed control at 1000 ppm in assay [4] was ≥ 90%.
Consider `Cc1ccc(C)c(NC(=O)N2CCC(c3nc(C4OCc5cccc(OS(C)(=O)=O)c5CO4)cs3)CC2)c1` (stereo not drawn) [Compound 2-5, 4-[4-(6-methylsulfonyloxy-1,5-dihydro-3H-2,4-benzodioxepin-3-yl)-2-thiazolyl]-1-[N-(2,5-dimethylphenyl)carbamoyl]piperidine], for which the pest or weed control at 4 µg/mL in assay [1], in assay [2] and in assay [3] was 100% throughout. Further, in assay [4], the pest or weed control at 1000 ppm was ≥ 90%.
Consider `Cc1ccc(C)c(CC(=O)N2CCC(c3nc(C4OCc5cccc(F)c5CO4)cs3)CC2)c1` (stereo not drawn) [Compound 2-7, 4-[4-(6-fluoro-1,5-dihydro-3H-2,4-benzodioxepin-3-yl)-2-thiazolyl]-1-[2-(2,5-dimethylphenyl)acetyl]piperidine], for which the pest or weed control at 4 µg/mL in assay [1], in assay [2] and in assay [3] was 100% in each case. In addition, the pest or weed control at 1000 ppm in assay [4] was ≥ 90%.
As for `Cc1ccc(C)c(CC(=O)N2CCC(c3nc(C4OCc5ccc(F)cc5CO4)cs3)CC2)c1` (stereo not drawn) [Compound 2-10, 4-[4-(7-fluoro-1,5-dihydro-3H-2,4-benzodioxepin-3-yl)-2-thiazolyl]-1-[2-(2,5-dimethylphenyl)acetyl]piperidine], the values for the pest or weed control at 4 µg/mL in assay [1], in assay [2] and in assay [3] were 100%, 80% and 100%, respectively. Moreover, the pest or weed control at 1000 ppm in assay [4] was ≥ 90%.
Regarding `Cc1ccc(C)c(CC(=O)N2CCC(c3nc(C4OCc5ccccc5C(C)O4)cs3)CC2)c1` (stereo not drawn) [Compound 2-13, 4-[4-(1-methyl-1,5-dihydro-3H-2,4-benzodioxepin-3-yl)-2-thiazolyl]-1-[2-(2,5-dimethylphenyl)acetyl]piperidine], the pest or weed control at 4 µg/mL in assay [1] was determined as 100%; in assay [2], 50%; in assay [3], 100%. Also, the pest or weed control at 1000 ppm in assay [4] is ≥ 90%.
For `Cc1ccc(C)c(CC(=O)N2CCC(c3nc(C4OCc5ccc([N+](=O)[O-])cc5CO4)cs3)CC2)c1` (stereo not drawn) [Compound 2-18, 4-[4-(7-nitro-1,5-dihydro-3H-2,4-benzodioxepin-3-yl)-2-thiazolyl]-1-[2-(2,5-dimethylphenyl)acetyl]piperidine], the pest or weed control at 4 µg/mL in assay [1], in assay [2] and in assay [3] was 100% in each case. The pest or weed control at 1000 ppm in assay [4] was ≥ 90%.
Take `O=C(Cc1cc(Cl)ccc1Cl)N1CCC(c2nc(C3OCc4cccc(Br)c4CO3)cs2)CC1` (stereo not drawn) [Compound 2-19, 4-[4-(6-bromo-1,5-dihydro-3H-2,4-benzodioxepin-3-yl)-2-thiazolyl]-1-[2-(2,5-dichlorophenyl)acetyl]piperidine]: the pest or weed control at 4 µg/mL in assay [1], in assay [2] and in assay [3] was 100% in each case. Further, the pest or weed control at 1000 ppm in assay [4] is ≥ 90%.
Regarding `COc1ccc(Cl)c2c1COC(c1csc(C3CCN(C(=O)Cc4cc(C)ccc4C)CC3)n1)OC2` (stereo not drawn) [Compound 2-20, 4-[4-(6-chloro-9-methoxy-1,5-dihydro-3H-2,4-benzodioxepin-3-yl)-2-thiazolyl]-1-[2-(2,5-dimethylphenyl)acetyl]piperidine], the pest or weed control at 4 µg/mL in assay [1], in assay [2] and in assay [3] was 100% in each case. For the same compound, the pest or weed control at 1000 ppm in assay [4] was ≥ 90%.
For the compound `O=C(Cc1cc(Cl)ccc1Cl)N1CCC(c2nc(C3OCc4cccc(Cl)c4CO3)cs2)CC1` (stereo not drawn) [Compound 2-22, 4-[4-(6-chloro-1,5-dihydro-3H-2,4-benzodioxepin-3-yl)-2-thiazolyl]-1-[2-(2,5-dichlorophenyl)acetyl]piperidine], the pest or weed control at 4 µg/mL in assay [1], in assay [2] and in assay [3] was 100% throughout. Also, the pest or weed control at 1000 ppm in assay [4] is ≥ 90%.
Regarding `COc1ccc(Cl)c2c1COC(c1csc(C3CCN(C(=O)Cc4cc(Cl)ccc4Cl)CC3)n1)OC2` (stereo not drawn) [Compound 2-23, 4-[4-(6-chloro-9-methoxy-1,5-dihydro-3H-2,4-benzodioxepin-3-yl)-2-thiazolyl]-1-[2-(2,5-dichlorophenyl)acetyl]piperidine], the pest or weed control at 4 µg/mL in assay [1], in assay [2] and in assay [3] was 100% throughout. Besides, in assay [4], the pest or weed control at 1000 ppm was ≥ 90%.
For the compound `O=C(Cc1cc(Cl)ccc1Cl)N1CCC(c2nc(C3OCc4c(F)c(F)c(F)c(F)c4CO3)cs2)CC1` [Compound 2-29, 4-[4-(6,7,8,9-tetrafluoro-1,5-dihydro-3H-2,4-benzodioxepin-3-yl)-2-thiazolyl]-1-[2-(2,5-dichlorophenyl)acetyl]piperidine], the pest or weed control at 4 µg/mL in assay [1], in assay [2] and in assay [3] was 100% each time. Further, the pest or weed control at 1000 ppm in assay [4] is ≥ 90%.
As to `Cc1ccc(C)c(CC(=O)N2CCC(c3nc(C4OCc5cccc([N+](=O)[O-])c5CO4)cs3)CC2)c1` (stereo not drawn) [Compound 2-39, 4-[4-(6-nitro-1,5-dihydro-3H-2,4-benzodioxepin-3-yl)-2-thiazolyl]-1-[2-(2,5-dimethylphenyl)acetyl]piperidine], the pest or weed control at 4 µg/mL in assay [1], in assay [2] and in assay [3] was 100% in each case. The pest or weed control at 1000 ppm in assay [4] is ≥ 90%.
